Experimental data: publication PMC12888861, “Antibacterial activity of enmetazobactam against Acinetobacter spp.: a molecular dissection of mechanism of action and resistance determinants” (Antimicrobial Agents and Chemotherapy, 2025)
Like-named read-outs stand apart in the source and are kept apart here.

System: A. non-baumannii isolates (n = 87)
Assay: MIC, broth microdilution (EUCAST), A. non-baumannii isolates
Assay type: cell-based, Acinetobacter spp. (non-baumannii)
Conditions: for MIC: in combinations ETZ fixed at 8 mg/L, read-out: MIC
Source text: The bacterial strains used in this study comprised 208 clinical isolates from the Spanish National Acinetobacter spp. 2020 Multicenter Collection, which was previously characterized in detail by our research group, including whole-genome sequencing, phylogenetics studies, clonal dynamics, and resistance mechanisms ([2], [29]). Additionally, a collection of A. baumannii ATCC 17978 transformants coding the blaOXA-23, blaOXA-24/40, blaOXA-51, blaOXA-58, blaOXA-143, and blaOXA-201 genes, previously constructed and described by our group ([30]), was used to determine the activity of enmetazobactam against strains carrying the main CHDLs of A. baumannii.
The antimicrobial susceptibility of the 208 Acinetobacter spp. isolates was assessed using the broth microdilution method, as described in the European Committee on Antimicrobial Susceptibility Testing (EUCAST) v.15 guidelines (http://www.eucast.org/clinical_breakpoints). […] MICs for enmetazobactam alone were assessed as well. […] Subsequently, MIC testing was also conducted with a collection of A. baumannii ATCC 17978 transformants expressing clinically relevant OXA-like carbapenemase genes.
The A. baumannii ATCC 19606 strain was used as the reference strain in all susceptibility experiments, in duplicate assays. Antibiotics were purchased from Sigma-Aldrich, except enmetazobactam and durlobactam, which were obtained from Advanz Pharma and MedChemExpress, respectively.

[1] = Acinetobacter, A. non-baumannii isolates (n=87), ETZ fixed 8 mg/L in combinations

## C[C@@H](O)[C@H]1C(=O)N2C(C(=O)O)=C(SCCN=CN)C[C@H]12 [imipenem]
Acinetobacter pittii, isolate NO-Ab90, Acinetobacter pittii
  MIC: ≤ 0.06 µg/mL
Acinetobacter pittii, isolate NO-Ab97, Acinetobacter pittii
  MIC: ≤ 0.06 µg/mL
Acinetobacter pittii, isolate NO-Ab105, Acinetobacter pittii
  MIC: 0.12 µg/mL
Acinetobacter pittii, isolate NO-Ab106, Acinetobacter pittii
  MIC: ≤ 0.06 µg/mL
Acinetobacter pittii, isolate NO-Ab107, Acinetobacter pittii
  MIC: ≤ 0.06 µg/mL
Acinetobacter pittii, isolate NO-Ab111, Acinetobacter pittii
  MIC: 0.12 µg/mL
Acinetobacter pittii, isolate NO-Ab113, Acinetobacter pittii
  MIC: 0.25 µg/mL
Acinetobacter pittii, isolate NO-Ab118, Acinetobacter pittii
  MIC: 0.12 µg/mL
Acinetobacter pittii, isolate NO-Ab135, Acinetobacter pittii
  MIC: 0.12 µg/mL
Acinetobacter pittii, isolate NO-Ab145, Acinetobacter pittii
  MIC: 0.12 µg/mL
Acinetobacter pittii, isolate NO-Ab151, Acinetobacter pittii
  MIC: 0.25 µg/mL
Acinetobacter pittii, isolate NO-Ab154, Acinetobacter pittii
  MIC: 0.25 µg/mL
Acinetobacter pittii, isolate NO-Ab157, Acinetobacter pittii
  MIC: 0.25 µg/mL
Acinetobacter pittii, isolate NO-Ab162, Acinetobacter pittii
  MIC: 0.12 µg/mL
Acinetobacter pittii, isolate NO-Ab164, Acinetobacter pittii
  MIC: ≤ 0.06 µg/mL
Acinetobacter pittii, isolate NO-Ab178, Acinetobacter pittii
  MIC: 0.12 µg/mL
Acinetobacter pittii, isolate NO-Ab197, Acinetobacter pittii
  MIC: 0.12 µg/mL
Acinetobacter proteolyticus, isolate NO-Ab99, Acinetobacter proteolyticus
  MIC: 0.25 µg/mL
Acinetobacter proteolyticus, isolate NO-Ab102, Acinetobacter proteolyticus
  MIC: 0.25 µg/mL
Acinetobacter proteolyticus, isolate NO-Ab210, Acinetobacter proteolyticus
  MIC: ≤ 0.06 µg/mL
Acinetobacter radioresistens, isolate NO-Ab175, Acinetobacter radioresistens
  MIC: 0.25 µg/mL
Acinetobacter radioresistens, isolate NO-Ab215, Acinetobacter radioresistens
  MIC: 0.12 µg/mL
Acinetobacter ursingii, isolate NO-Ab3, Acinetobacter ursingii
  MIC: ≤ 0.06 µg/mL
Acinetobacter ursingii, isolate NO-Ab64, Acinetobacter ursingii
  MIC: ≤ 0.06 µg/mL
Acinetobacter ursingii, isolate NO-Ab87, Acinetobacter ursingii
  MIC: ≤ 0.06 µg/mL
Acinetobacter ursingii, isolate NO-Ab103, Acinetobacter ursingii
  MIC: ≤ 0.06 µg/mL
Acinetobacter ursingii, isolate NO-Ab119, Acinetobacter ursingii
  MIC: 0.25 µg/mL
Acinetobacter ursingii, isolate NO-Ab120, Acinetobacter ursingii
  MIC: ≤ 0.06 µg/mL
Acinetobacter ursingii, isolate NO-Ab123, Acinetobacter ursingii
  MIC: ≤ 0.06 µg/mL
Acinetobacter ursingii, isolate NO-Ab126, Acinetobacter ursingii
  MIC: 0.12 µg/mL
Acinetobacter ursingii, isolate NO-Ab147, Acinetobacter ursingii
  MIC: 0.25 µg/mL
Acinetobacter ursingii, isolate NO-Ab155, Acinetobacter ursingii
  MIC: 0.25 µg/mL
Acinetobacter ursingii, isolate NO-Ab165, Acinetobacter ursingii
  MIC: 0.12 µg/mL
Acinetobacter ursingii, isolate NO-Ab166, Acinetobacter ursingii
  MIC: ≤ 0.06 µg/mL
Acinetobacter ursingii, isolate NO-Ab214, Acinetobacter ursingii
  MIC: ≤ 0.06 µg/mL
Acinetobacter ursingii, isolate NO-Ab221, Acinetobacter ursingii
  MIC: ≤ 0.06 µg/mL
Acinetobacter ursingii, isolate NO-Ab222, Acinetobacter ursingii
  MIC: ≤ 0.06 µg/mL
Acinetobacter, isolate NO-Ab146, Acinetobacter iwoffii
  MIC: 0.25 µg/mL
Acinetobacter, isolate NO-Ab159, Acinetobacter iwoffii
  MIC: ≤ 0.06 µg/mL
[1]
  MIC50: 0.12 µg/mL
  MIC90: 0.25 µg/mL
Cumulative share of A. non-baumannii isolates (n=87) at MIC 0.25 mg/L, ETZ fixed 8 mg/L in combinations
  MIC distribution 0.25: 96.6
Cumulative share of A. non-baumannii isolates (n=87) at MIC 0.5 mg/L, ETZ fixed 8 mg/L in combinations
  MIC distribution 0.5: 97.7
Cumulative share of A. non-baumannii isolates (n=87) at MIC 1 mg/L, ETZ fixed 8 mg/L in combinations
  MIC distribution 1: 97.7
Cumulative share of A. non-baumannii isolates (n=87) at MIC 2 mg/L, ETZ fixed 8 mg/L in combinations
  MIC distribution 2: 97.7
Cumulative share of A. non-baumannii isolates (n=87) at MIC 4 mg/L, ETZ fixed 8 mg/L in combinations
  MIC distribution 4: 97.7
Cumulative share of A. non-baumannii isolates (n=87) at MIC 8 mg/L, ETZ fixed 8 mg/L in combinations
  MIC distribution 8: 97.7
Cumulative share of A. non-baumannii isolates (n=87) at MIC 16 mg/L, ETZ fixed 8 mg/L in combinations
  MIC distribution 16: 97.7
Cumulative share of A. non-baumannii isolates (n=87) at MIC 32 mg/L, ETZ fixed 8 mg/L in combinations
  MIC distribution 32: 100
Cumulative share of A. non-baumannii isolates (n=87) at MIC ≤0.06 mg/L, ETZ fixed 8 mg/L in combinations
  MIC distribution ≤0.06: 32.2
